In US7135305B2, “Methods for controlling the lysis of coagulated blood with apolipoprotein e4 phenotype” (priority 2000, dated 2006):

What was measured:
[1] = tested on: t-PA stimulated clot lysis in fresh human blood; test: in vitro clot lysis measured by the amount of liquid liberated from the blood sample (Example 1); conditions: FIG. 2; individual B's blood; t-PA alone 0.5 mg/l blood; N=3
Excerpt: There are various methods for determining the function, action and or kinetics of t-PA. These include but are not limited to: measuring fibrin degradation fragments, clot lysis, clot weight, fluid evolution weight, clot times and others. Those experienced in the art will be familiar with these and other methods for assaying t-PA activity or clot degradation/formation etc. The data from this study consists of a measurement of clot dissolution or lysis by measuring the amount of liquid liberated from the blood sample. This is an index of clot lysis and the clot lysis is stimulated by t-PA.
Typically, two mls of fresh human blood are drawn and added to pre-weighed vials containing known amounts of t-PA with or without Apo E4. The blood is mixed and allowed to equilibrate for 40 minutes. The vials are centrifuged at 1 g for 15 minutes and the supernatant decanted. Clot weight and solution weight is determined and used to measure clot degradation or dissolution. Increasing supernatant volumes indicate increased clot degradation or increasing clot dissolution.

t-PA induced clot lysis = test: in vitro clot assay system, t-PA induced clot lysis with supplemental Apo E isoproteins (Example 3); set-up: species or system human; conditions: FIG. 4; t-PA 0 to 4 μg/ml, alone or with supplemental Apo E 9.8 μg/ml; blood of 18 volunteers
Protocol: The ability of Apo E isoproteins to modulate t-PA induced clot lysis is assessed using an in vitro clot assay system. This system uses the decrease in clot formation in the presence of t-PA to approximate the amount of clot lysis. Blood samples are obtained from 18 volunteers and divided into three Apo E genotypes (6 patients in each group): E2 (E2/E2, E2/E3, E2/E4), E3 (E3/E3) and E4 (E3/E4, E4/E4). Clot lysis in the presence of varying concentrations of t-PA (0 to 4 μg/ml), is assessed in the presence or absence of supplemental Apo E2, E3 or E4 (9.8 μg/ml) for each patient genotype. The results are expressed as EC50s, which are the effective concentrations of t-PA required to achieve 50% lysis of the clot.

EC50, effective concentration of t-PA required to achieve 50% lysis of the clot (t-PA induced clot lysis): 0.72 ± 0.19 µg/mL
Substance: t-PA: tissue plasminogen activator, clot lysis agent
level of clot lysis [1]: 2.5 g
